Results: paper PMC10290335 (Malaria Journal, 2023)
≈ marks a conversion by molar mass, not a printed value. Where “and” joins values, the source holds several entries; their conditions need not be identical. Identical values can stand only once. Entries after “also recorded” stand apart in the source; their conditions may differ. Like-named read-outs stand apart in the source and are kept apart here.

What was measured:
[1] = Clinical pharmacokinetics of ivermectin metabolites in blood of healthy volunteers; format: in vivo, human; conditions: for Cmax [ratio]: area/internal standard area ratio; for Cmax [ratio] / Half-life / MRTlast / Tmax: whole blood, 12 subjects, mean ± SE; for Cmax [ratio] / Half-life / MRTlast: 12 mg ivermectin, NCA; for Tmax: single oral 12 mg ivermectin
Experimental: Peripheral venous blood samples were collected before dosing and after 1, 2, 4, 6, 8, 12, 24, 48 and 72 h. Blood samples (50 µL) were extracted by the addition of 150 µL ISTD solution. Samples were mixed for 1 min and centrifuged for 30 min at 3220×g and 15 °C (5810 R centrifuge). Twenty microlitres of supernatant were injected into the LC–MS/MS system to determine the signal intensity of the metabolites.
The different LC–MS/MS settings were applied for the metabolism, pharmacokinetic and metabolite fractioning assays (Additional file 1: Table S1, S2, S3). All analyses were performed on a modular HPLC (Shimadzu, Kyoto, Japan) composed of four pumps (2 × LC-30AD, 2 × LC-20AD), an autosampler (SIL 30-AC MP), a system controller (CBM-20A), two degassing units (DGU-20A5 and DGU-20A3R), a column oven (CTO-20AC), a low-pressure valve (FCV-12AH), and a fraction collector (FRC-12A). The HPLC system was connected to an API 5000 triple quadrupole mass spectrometer (AB Sciex, Ontario, Canada) that was equipped with a turbo electrospray ionization source. The system was operated with Analyst Software 1.7 (AB Sciex) and acquired data were analysed using MultiQuant Software 3.0.3 (AB Sciex).
The integral method “linear up log down” was used on area/internal standard area ratio.
In total, three T0 blank blood samples originating from different PK study participants were used to resuspend the metabolites (Additional file 1: Table S5). The signal intensity was recorded for every metabolite by extracting the 50 µL blood with 150 µL of ISTD solution. The metabolite peak area was determined by LC–MS/MS (see section LC-MS/MS analysis of ivermectin). Moreover, the PK samples of all study participants were equally extracted and analysed to derive the maximal blood level (Cmax) from the blood level-time curves. Afterwards, the mean metabolite peak area of the spiked blank blood was compared with the mean peak area of the Cmax samples (Additional file 1: Table S5). The amount of each metabolite fraction was either reduced or increased to match the peak area of Cmax samples. If the metabolite was not detectable in PK samples, the amount of metabolite was adjusted to the lower limit of detection of the method. In this case, blank blood was spiked with the metabolite fraction to receive a signal intensity that is three times larger than the corresponding noise level.

[2] = test system: Anopheles stephensi mosquitoes; assay: Anopheles stephensi membrane feeding screening assay (survival and activity); format: in vivo; conditions: for Average activity score: score +2 flying, +1 moving, 0 dead; for activity against An. stephensi: at Cmax levels observed in clinical PK samples; for mean survival of mosquitoes after blood meal: blood meal at Cmax level; for mosquitoes dead after 72 h: blood meal at Cmax level (ivermectin 50 ng/mL), 72 h after treatment
Experimental: The final DMSO content in blood was 0.1%, which was also the DMSO concentration used for the negative control assays (0.1% DMSO in blank blood). Inclusion of blank fractions as additional negative controls were not considered, because it would not have been feasible to also test the corresponding blank fraction for each metabolite fraction (F1–F9). The blood preparations were rotated at room temperature for 20 min to ensure a uniform metabolite distribution (Rotator Genie, Scientific Industries, Bohemia, USA). The dissolution of the metabolites was confirmed by LC–MS/MS.
Around 50–70 female mosquitoes aged 5–10 days post-emergence were transferred with a mouth aspirator into 20 mL paper cups. A piece of mosquito netting was used to cover the cups. Mosquitoes were starved for 24 h before treatment. The mosquito blood meals were heated in a water bath (SAHARA PPO S5P Heated Bath Circulators, Thermo Fisher Scientific, New Hampshire, USA) for 20 min at 39 °C. A Petri dish (35 mm × 10 mm, BD, Franklin Lakes, USA) was filled with 3 mL of warm blood, sealed with a piece of sealing film (Parafilm®, Huberlab AG, Aesch, Switzerland). The Petri dish was placed upside down on top of the net sealing the paper cup. Female mosquitoes were allowed to feed for 20 min on the blood through the net and the sealing film. The feeding was conducted in a climate chamber (HPP110, Memmert GmbH + Co.KG, Schwabach, Germany) at 27 °C, 70% humidity, and 30% light intensity. After feeding, the cups were put on ice to immobilise the mosquitoes and only the fully engorged mosquitoes were selected for the assay. The mosquitoes were returned to the climate chamber to assess their activity and survival for 3 days.
In the framework of screening assays, mosquitoes were treated with blood containing each metabolite corresponding to Cmax levels observed in PK samples. […] In screening assays, eleven treatments were evaluated with three replicates using three batches of 50–70 mosquitoes.

[3] = test system: Anopheles stephensi mosquitoes; assay: 3-day LC50 in Anopheles stephensi (membrane feeding, dilutions); format: in vivo; conditions: 72 h after blood feeding
Experimental: A pilot test was performed to evaluate optimal dilutions matching the expected LC50 values (data not shown).
Student's t test was adopted to test the significance of all mean survival differences between groups, using the R package ggsignif (version 0.6.4). Survival analyses, summary and visualisation of survival analysis were computed using the GNU R packages survival (version 3.1-8) and survminer (version 0.4.9). Replicates were pooled and analysed by the logrank test and the hazard ratio with 95% confidence intervals. LC50 in An. stephensi mosquito were approximated with regression analysis, using GNU R package drc (version 3.0-1) for analysis of dose–response curves (Additional file 1: Fig. S3). The time above LC50 estimation (Additional file 1: Fig. S4) was computed using the GNU R package data.table (version 1.14.6).

rh CYP3A4 supersomes = biological target: T1, rh CYP3A4 supersomes (Homo sapiens, UniProt P08684); assay: Ivermectin metabolism by recombinant human CYP3A4 supersomes; format: in vitro ADME; conditions: 10 µM ivermectin
T1 construct: purchased Corning Life Sciences B.V. (Amsterdam, The Netherlands)
Experimental: (§1) The assay mixture was heated for 10 min at 37 °C in a Thermomixer 5436 (Eppendorf, Hamburg, Germany) and the reaction was initiated by the addition of supersomes. Samples (50 μL) were taken after 0, 15, 30, 45, and 60 min. […] After centrifugation (30 min at 3220×g and 15 °C, 5810 R Eppendorf centrifuge), sample supernatants (10 µL) were analysed by LC–MS/MS. Metabolite production was quantified by dividing the metabolite peak area with the ISTD peak area. Each metabolism assay was performed in triplicate.

rh CYP3A5 supersomes = biological target: T2, rh CYP3A5 supersomes (Homo sapiens, UniProt P20815); assay: Ivermectin metabolism by recombinant human CYP3A5 supersomes; format: in vitro ADME; conditions: 10 µM ivermectin
T2 construct: purchased Corning Life Sciences B.V. (Amsterdam, The Netherlands)
Experimental: as §1

[4] = cited from earlier work
An. stephensi = conditions: cited from earlier work
An. gambiae = conditions: cited from earlier work
Aedes aegypti = conditions: cited from earlier work
[5] = plasma, single oral 12 mg ivermectin, mean ± SD; cited from earlier work
[6] = mean of PK subjects 1-12, 50 µL blood
[7] = Cmax = maximal peak area in human PK samples

T2 sequence (P20815 whole entry): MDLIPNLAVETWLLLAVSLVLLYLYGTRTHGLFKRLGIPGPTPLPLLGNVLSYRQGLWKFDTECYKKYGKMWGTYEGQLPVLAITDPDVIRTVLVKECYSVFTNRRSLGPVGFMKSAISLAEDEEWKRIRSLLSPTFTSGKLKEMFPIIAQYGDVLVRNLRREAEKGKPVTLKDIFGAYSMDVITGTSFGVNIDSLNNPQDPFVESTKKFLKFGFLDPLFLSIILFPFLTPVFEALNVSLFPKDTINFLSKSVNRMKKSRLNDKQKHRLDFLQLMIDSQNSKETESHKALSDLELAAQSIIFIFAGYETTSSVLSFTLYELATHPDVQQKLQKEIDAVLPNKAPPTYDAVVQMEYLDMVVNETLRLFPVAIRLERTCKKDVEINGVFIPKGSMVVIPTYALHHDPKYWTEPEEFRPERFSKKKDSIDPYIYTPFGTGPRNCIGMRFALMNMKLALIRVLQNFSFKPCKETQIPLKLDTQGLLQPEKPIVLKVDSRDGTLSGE
T1 sequence (P08684 whole entry): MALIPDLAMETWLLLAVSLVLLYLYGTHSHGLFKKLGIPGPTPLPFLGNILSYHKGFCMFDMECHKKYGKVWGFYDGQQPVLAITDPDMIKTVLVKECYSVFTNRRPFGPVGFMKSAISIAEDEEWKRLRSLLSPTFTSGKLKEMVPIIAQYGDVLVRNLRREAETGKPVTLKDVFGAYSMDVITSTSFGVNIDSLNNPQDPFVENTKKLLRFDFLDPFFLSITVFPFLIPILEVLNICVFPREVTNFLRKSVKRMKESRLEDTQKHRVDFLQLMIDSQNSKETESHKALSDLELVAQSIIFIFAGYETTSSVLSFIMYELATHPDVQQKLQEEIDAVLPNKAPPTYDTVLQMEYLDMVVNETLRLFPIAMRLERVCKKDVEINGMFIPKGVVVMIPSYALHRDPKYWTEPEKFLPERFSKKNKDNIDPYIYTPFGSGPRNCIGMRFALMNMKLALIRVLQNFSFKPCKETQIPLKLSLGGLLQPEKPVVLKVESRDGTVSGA

| Structure (SMILES) | Observed Cmax, peak area ([1]; PK subject 1, 50 µL blood) | Observed Cmax, peak area ([1]; PK subject 2, 50 µL blood) | Observed Cmax, peak area ([1]; PK subject 3, 50 µL blood) | Observed Cmax, peak area ([1]; PK subject 4, 50 µL blood) | Observed Cmax, peak area ([1]; PK subject 5, 50 µL blood) | Observed Cmax, peak area ([1]; PK subject 6, 50 µL blood) | Observed Cmax, peak area ([1]; PK subject 7, 50 µL blood) | Observed Cmax, peak area ([1]; PK subject 8, 50 µL blood) | Observed Cmax, peak area ([1]; PK subject 9, 50 µL blood) | Observed Cmax, peak area ([1]; PK subject 10, 50 µL blood) | Observed Cmax, peak area ([1]; PK subject 11, 50 µL blood) | Observed Cmax, peak area ([1]; PK subject 12, 50 µL blood) | Cmax [ratio] [1] | Observed Cmax, peak area [1, 6] | Average activity score ([2]; 0 h post feeding) | Average activity score ([2]; 24 h post feeding) | Average activity score ([2]; 48 h post feeding) | Average activity score ([2]; 72 h post feeding) | mean survival of mosquitoes after blood meal [2] | mosquitoes dead after 72 h [2] | further results |
| --- | --- | --- | --- | --- | --- | --- | --- | --- | --- | --- | --- | --- | --- | --- | --- | --- | --- | --- | --- | --- | --- |
| CCC(C)C1OC2(CCC1C)CC1CC(CC=C(C)C(OC3CC(OC)C(OC4CC(O)C(O)C(C)O4)C(C)O3)C(C)C=CC=C3COC4C(O)C(C)=CC(C(=O)O1)C34O)O2 (stereo not shown) [M1, 3″-O-desmethyl-H2B1a] | 1.95E+04 counts | 1.01E+04 counts | 1.39E+04 counts | 8.48E+03 counts | 9.52E+03 counts | 2.33E+04 counts | 1.56E+04 counts | 1.79E+04 counts | 1.28E+04 counts | 1.60E+04 counts | 2.28E+04 counts | 1.78E+04 counts | 0.011 ± 0.001 ratio | 1.56E+04 counts | 2.00 | 1.07 and 1.07 ± 0.04 | 0.23 and 0.23 ± 0.02 | 0.01 | decreased | 98.8% | Half-life [1]: 54.2 ± 4.7 h; MRTlast [1]: 33.8 ± 0.9 h; Tmax [1]: 7.0 ± 0.5 h; activity against An. stephensi [2]: active; 3-day LC50 [3, 7]: 0.25 Cmax |
| CCC(C)C1OC2(CCC1C)CC1CC(CC=C(C)C(OC3CC(OC)C(OC4CC(OC)C(O)C(C)O4)C(C)O3)C(C)C=CC=C3COC4C(O)C(CO)=CC(C(=O)O1)C34O)O2 (stereo not shown) [M2, 4-hydroxy-H2B1a] | 1.84E+04 counts | 9.36E+03 counts | 1.31E+04 counts | 7.42E+03 counts | 9.63E+03 counts | 2.00E+04 counts | 1.39E+04 counts | 1.25E+04 counts | 1.08E+04 counts | 1.50E+04 counts | 1.64E+04 counts | 1.59E+04 counts | 0.010 ± 0.0010 ratio | 1.35E+04 counts | 2.00 | 1.20 and 1.20 ± 0.12 | 0.28 and 0.28 ± 0.05 | 0 | decreased | 100% | Half-life [1]: 31.9 ± 3.4 h; MRTlast [1]: 25.8 ± 0.7 h; Tmax [1]: 6.3 ± 0.3 h; activity against An. stephensi [2]: active; 3-day LC50 [3, 7]: 0.21 Cmax |
| CC[C@H](C)[C@H]1O[C@]2(CC[C@@H]1CO)C[C@@H]1C[C@@H](C/C=C(\C)[C@@H](O[C@H]3C[C@H](OC)[C@@H](O[C@H]4C[C@H](OC)[C@@H](O)[C@H](C)O4)[C@H](C)O3)[C@@H](C)/C=C/C=C3\CO[C@@H]4[C@H](O)C(C)=C[C@@H](C(=O)O1)[C@]34O)O2 [M9, 24-hydroxy-H2B1a] | – | – | – | – | – | – | – | – | – | – | – | – | – | – | 2.00 | 1.92 | 1.87 | 1.64 | – | – | metabolite formation by CYP3A4 (rh CYP3A4 supersomes): only minor amounts; detection in pharmacokinetic samples ([1]; human blood after single oral 12 mg ivermectin): Only traces; metabolite formation by CYP3A5 (rh CYP3A5 supersomes): mainly produced by CYP3A5; also recorded: very effective |
| CCC(C)C1OC2(CCC1C)CC1CC(CC=C(C)C(OC3CC(OC)C(OC4CC(OC)C(O)C(C)O4)C(C)O3)C(C)C=CC=C3COC4C(O)C(C)=CC(C(=O)O1)C34O)O2 (stereo not shown) [Ivermectin, 22,23-dihydroavermectin B1a, reference compound] | – | – | – | – | – | – | – | – | – | – | – | – | – | – | 2.00 | 0.71 ± 0.05 | 0.03 ± 0.02 | 0 | decreased | 100% | estimated half-life [4]: 24 to 72 h; peak concentration ([4]; single oral dose of 150 µg/kg): around 40 ng/mL; time of peak concentration ([4]; single oral dose of 150 µg/kg): Approximately 4 h; 4-day-LC50 (An. stephensi): 7 ng/mL; 7-day-LC50 (An. gambiae; blood fed from treated humans): 3.4 ng/mL; 7-day-LC50 (An. gambiae; spiked ivermectin experiments (in vitro mixture)): 15.9 ng/mL; ivermectin metabolised (rh CYP3A4 supersomes; within 1 h): 80%; Average activity score ([2]; 24 h post feeding, listed as IVM): 0.71; Average activity score ([2]; 48 h post feeding, listed as IVM): 0.03; LC50 within 7-days (Aedes aegypti): 178 to 187 ng/mL; 3-day LC50 [3]: 3.07 ng/mL; LC50 ([3]; Anopheles stephensi, 72 h): ~3 ng/mL (≈ 3.43 nM); Cmax [5]: 0.0707 ± 0.0161 µg/mL; Half-life [5]: 38.9 ± 20.8 h; Tmax [5]: 4.4 ± 1.4 h; ivermectin metabolised (rh CYP3A5 supersomes; within 1 h): 20% |
